According to the NIST ThermoML archive (doi:10.1021/je060113j):
± gives the expanded uncertainty stated by the source.

Tests used:
[1] = 101.33 kPa, Liquid; for viscosity: Capillary tube (Ostwald / Ubbelohde) method; for mass density: Pycnometric method; for speed of sound: Sing-around technique in a fixed-path interferometer
[2] = xn = mol fraction of the nth substance listed; settings: 101 kPa, Liquid; for viscosity: Capillary tube (Ostwald / Ubbelohde) method; for mass density: Pycnometric method; for speed of sound: Sing-around technique in a fixed-path interferometer

OCCO [1,2-ethanediol]
viscosity ([1]; 298.15 K): 16.39 ± 0.11 mPa·s | mass density ([1]; 298.15 K): 1106.3 ± 0.6 kg/m3 | speed of sound ([1]; 298.15 K): 1666 ± 1.3 m/s | viscosity ([1]; 308.15 K): 10.77 ± 0.074 mPa·s | viscosity ([1]; 318.15 K): 7.703 ± 0.054 mPa·s

OCCO [1,2-ethanediol] + CN(C)C=O
viscosity ([2]; 298.15 K, x1 = 0.5408): 3.065 ± 0.023 mPa·s | mass density ([2]; 298.15 K, x1 = 0.5408): 1024.8 ± 0.5 kg/m3 | speed of sound ([2]; 298.15 K, x1 = 0.5408): 1584.4 ± 1.3 m/s | viscosity ([2]; 308.15 K, x1 = 0.5408): 2.453 ± 0.019 mPa·s | mass density ([2]; 308.15 K, x1 = 0.5408): 1016.8 ± 0.5 kg/m3 | viscosity ([2]; 318.15 K, x1 = 0.5408): 1.96 ± 0.015 mPa·s | mass density ([2]; 318.15 K, x1 = 0.5408): 1008.2 ± 0.5 kg/m3

OCCO [1,2-ethanediol] + C[S+](C)[O-]
viscosity ([2]; 298.15 K, x1 = 0.5573): 5.195 mPa·s | mass density ([2]; 298.15 K, x1 = 0.5573): 1108.5 ± 0.6 kg/m3 | speed of sound ([2]; 298.15 K, x1 = 0.5573): 1617.3 ± 1.3 m/s | viscosity ([2]; 308.15 K, x1 = 0.5573): 3.901 mPa·s | mass density ([2]; 308.15 K, x1 = 0.5573): 1098.9 ± 0.6 kg/m3 | viscosity ([2]; 318.15 K, x1 = 0.5573): 3.108 mPa·s | mass density ([2]; 318.15 K, x1 = 0.5573): 1089.6 ± 0.6 kg/m3

C1COCCO1 [1,4-dioxane]
viscosity ([1]; 298.15 K): 1.224 ± 0.0096 mPa·s | mass density ([1]; 298.15 K): 1027.3 ± 0.5 kg/m3 | speed of sound ([1]; 298.15 K): 1344 ± 1.2 m/s | viscosity ([1]; 308.15 K): 0.9268 ± 0.0074 mPa·s | mass density ([1]; 308.15 K): 1016 ± 0.5 kg/m3 | viscosity ([1]; 318.15 K): 0.7991 ± 0.0065 mPa·s | mass density ([1]; 318.15 K): 1005.6 ± 0.5 kg/m3

C1COCCO1 [1,4-dioxane] + OCCO
viscosity ([2]; 298.15 K, x2 = 0.5867): 4.386 ± 0.033 mPa·s | mass density ([2]; 298.15 K, x2 = 0.5867): 1070.9 ± 0.5 kg/m3 | speed of sound ([2]; 298.15 K, x2 = 0.5867): 1519.2 ± 1.3 m/s | viscosity ([2]; 308.15 K, x2 = 0.5867): 3.36 ± 0.025 mPa·s | mass density ([2]; 308.15 K, x2 = 0.5867): 1060.4 ± 0.6 kg/m3 | viscosity ([2]; 318.15 K, x2 = 0.5867): 2.661 ± 0.02 mPa·s | mass density ([2]; 318.15 K, x2 = 0.5867): 1050.9 ± 0.6 kg/m3

C[S+](C)[O-] [dimethyl sulfoxide]
viscosity ([1]; 298.15 K): 2.042 ± 0.016 mPa·s | mass density ([1]; 298.15 K): 1095.4 ± 0.6 kg/m3 | speed of sound ([1]; 298.15 K): 1493 ± 1.2 m/s | viscosity ([1]; 308.15 K): 1.568 ± 0.012 mPa·s | mass density ([1]; 308.15 K): 1085.9 ± 0.6 kg/m3 | viscosity ([1]; 318.15 K): 1.485 ± 0.011 mPa·s | mass density ([1]; 318.15 K): 1076.7 ± 0.6 kg/m3

CN(C)C=O [dimethylformamide]
viscosity ([1]; 298.15 K): 0.8586 ± 0.0069 mPa·s | mass density ([1]; 298.15 K): 946.1 ± 0.5 kg/m3 | speed of sound ([1]; 298.15 K): 1465 ± 1.2 m/s | viscosity ([1]; 308.15 K): 0.7763 ± 0.0063 mPa·s | mass density ([1]; 308.15 K): 939.9 ± 0.5 kg/m3 | viscosity ([1]; 318.15 K): 0.7125 ± 0.0058 mPa·s | mass density ([1]; 318.15 K): 931.6 ± 0.5 kg/m3

C1CCOC1 [tetrahydrofuran]
viscosity ([1]; 298.15 K): 0.463 ± 0.004 mPa·s | mass density ([1]; 298.15 K): 880.7 ± 0.4 kg/m3 | speed of sound ([1]; 298.15 K): 1279 ± 1.2 m/s | viscosity ([1]; 308.15 K): 0.4277 ± 0.0038 mPa·s | mass density ([1]; 308.15 K): 871.2 ± 0.5 kg/m3 | viscosity ([1]; 318.15 K): 0.3902 ± 0.0035 mPa·s | mass density ([1]; 318.15 K): 861.4 ± 0.5 kg/m3

C1CCOC1 [tetrahydrofuran] + OCCO
viscosity ([2]; 298.15 K, x2 = 0.5374): 2.509 ± 0.019 mPa·s | mass density ([2]; 298.15 K, x2 = 0.5374): 984.5 ± 0.5 kg/m3 | speed of sound ([2]; 298.15 K, x2 = 0.5374): 1436.8 ± 1.2 m/s | viscosity ([2]; 308.15 K, x2 = 0.5374): 1.866 ± 0.014 mPa·s | mass density ([2]; 308.15 K, x2 = 0.5374): 974.1 ± 0.5 kg/m3 | viscosity ([2]; 318.15 K, x2 = 0.5374): 1.558 ± 0.012 mPa·s | mass density ([2]; 318.15 K, x2 = 0.5374): 964.9 ± 0.5 kg/m3

O [water]
viscosity ([1]; 298.15 K): 0.8904 ± 0.0071 mPa·s | speed of sound ([1]; 298.15 K): 1498 ± 1.2 m/s | viscosity ([1]; 308.15 K): 0.7194 ± 0.0059 mPa·s | mass density ([1]; 308.15 K): 994.1 ± 0.5 kg/m3 | viscosity ([1]; 318.15 K): 0.596 ± 0.005 mPa·s | mass density ([1]; 318.15 K): 990.3 ± 0.5 kg/m3
